According to patent publication US20220016092A1, “METHODS FOR TREATING SYMPTOMS AND DISORDERS ASSOCIATED WITH LYSOSOMAL STORAGE DISEASES” (GENZYME CORPORATION, priority 2019, published 2022):

Test system: GL-3, lyso-GL-3, GL-1 and GM3
Experiment: Clinical study in Fabry disease patients: plasma and urine glycosphingolipids
Format: in vivo, human
Details: 15 mg/day oral
Experimental: A three-year open-label investigation of Compound 2 in young classic Fabry disease patients was conducted in order to evaluate the long-term safety, pharmacodynamics and exploratory efficacy of Compound 2 in adult male Fabry patients. Eleven subjects enrolled in the study, and seven subjects completed all aspects of the study. All subjects were males diagnosed with classic Fabry disease confirmed by genotype and residual alpha-galactosidase activity below detection levels (9 of the 11 had nonsense mutation in the GLA gene). All subjects had lyso-GL3 levels in plasma of at least 65 ng/mL and had no prior Fabry disease-specific treatment. The median age of subject was 24 years (range 19-37).
Each sample was scored independently by 3 pathologists for the presence of GL-3 inclusions on a four-point scale, and rated as 0 (no/trace), 1 (mild), 2 (moderate), or 3 (severe) according to Eng et al., N. Engl. J. Med. 345:9-16 (2001). A single score per patient per time point was derived by taking the score rated by the majority of the three pathologists. If a majority score could not be derived, then the median score was used (resulting in some fractional scores). […] Pain scores and abdominal symptoms were analyzed at baseline and weeks 12, 26, 52, 104 and 156 using the SF-36 scoring protocol. […]

## CC(C)(NC(=O)O[C@@H]1CN2CCC1CC2)c1csc(-c2ccc(F)cc2)n1 [Compound 2, (S)-quinuclidin-3-yl 2-(2-(4-fluorophenyl)thiazol-4-yl)propan-2-ylcarbamate]
26 weeks (n = 8)
  Urine GL-3 (mg per mmol urine creatinine), change from baseline: -0.25 mg/mmol
26 weeks (n = 9)
  Plasma GL-1, change from baseline: -3.26 µg/mL
  Plasma GL-3, change from baseline: -3.62 µg/mL
  Plasma GM3, change from baseline: -10.77 µg/mL
  Plasma lyso-GL-3, change from baseline: -30.99 ng/mL
52 weeks (n = 7)
  Plasma GL-1, change from baseline: -3.58 µg/mL
  Plasma GL-3, change from baseline: -5.06 µg/mL
  Plasma GM3, change from baseline: -8.84 µg/mL
  Plasma lyso-GL-3, change from baseline: -37.10 ng/mL
  Urine GL-3 (mg per mmol urine creatinine), change from baseline: -0.20 mg/mmol
104 weeks (n = 7)
  Plasma GL-1, change from baseline: -3.70 µg/mL
  Plasma GL-3, change from baseline: -6.32 µg/mL
  Plasma GM3, change from baseline: -9.92 µg/mL
  Plasma lyso-GL-3, change from baseline: -39.84 ng/mL
  Urine GL-3 (mg per mmol urine creatinine), change from baseline: -0.18 mg/mmol
156 weeks (n = 7)
  Plasma GL-1, change from baseline: -3.23 µg/mL
  Plasma GL-3, change from baseline: -6.97 µg/mL
  Plasma GM3, change from baseline: -8.12 µg/mL
  Plasma lyso-GL-3, change from baseline: -48.13 ng/mL
  Urine GL-3 (mg per mmol urine creatinine), change from baseline: -0.18 mg/mmol
After 156 weeks
  Plasma GL-3 levels: 1.90 µg/mL
At 104 weeks (p=0.0351) and 156 weeks (p=0.0081)
  Plasma GL-3 reduction compared to agalsidase beta: significantly greater
Over the 156-week study
  Drop in mean plasma GL-1 levels: 69%
  Drop in mean plasma GL-3 levels: 77%
  Drop in mean plasma GM3 levels: 60%
  Drop in mean plasma lyso-GL3 levels: 52%
